Experimental data from patent US20120115877A1, “Facially Amphiphilic Compounds, Compositions, And Uses Thereof In Treating Cancer” (POLYMEDIX, INC., priority 2010, published 2012).

Columns and labels:
Type in all cases: cell-based, human
MALME-3M = test: NCI-60 screen, Melanoma; conditions: 10 μM
Experimental: (§1) Several compounds were tested at single concentrations (10 μM) against 59 different human tumor cell lines, representing leukemia, melanoma and cancers of the lung, colon, brain, ovary, breast, prostate, and kidney (see, Table 3). The human tumor cell lines of the cancer screening panel were grown in RPMI 1640 medium containing 5% fetal bovine serum and 2 mM L-glutamine. For a typical screening experiment, cells were inoculated into 96 well microtiter plates in 100 μL at plating densities ranging from 5,000 to 40,000 cells/well depending on the doubling time of individual cell lines. After cell inoculation, the microtiter plates were incubated at 37° C., 5% CO2, 95% air and 100% relative humidity for 24 hours prior to addition of the compounds.
(§2) After 24 hours, two plates of each cell line were fixed in situ with TCA, to represent a measurement of the cell population for each cell line at the time of drug addition (Tz). Compounds were solubilized in dimethyl sulfoxide at 400-fold the desired final maximum test concentration and stored frozen prior to use. At the time of drug addition, an aliquot of frozen concentrate was thawed and diluted to twice the desired final maximum test concentration with complete medium containing 50 μg/ml gentamicin. Additional four, 10-fold or ½ log serial dilutions were made to provide a total of five compound concentrations plus control. Aliquots of 100 μl of these different drug dilutions were added to the appropriate microtiter wells already containing 100 μl of medium, resulting in the required final compound concentrations.
(§3) Following drug addition, the plates were incubated for an additional 48 hours at 37° C., 5% CO2, 95% air, and 100% relative humidity. For adherent cells, the assay was terminated by the addition of cold TCA. Cells were fixed in situ by the gentle addition of 50 μl of cold 50% (w/v) TCA (final concentration, 10% TCA) and incubated for 60 minutes at 4° C. The supernatant was discarded, and the plates were washed five times with tap water and air dried. Sulforhodamine B (SRB) solution (100 μl) at 0.4% (w/v) in 1% acetic acid was added to each well, and plates were incubated for 10 minutes at room temperature. After staining, unbound dye was removed by washing five times with 1% acetic acid and the plates were air dried. Bound stain was subsequently solubilized with 10 mM trizma base, and the absorbance was read on an automated plate reader at a wavelength of 515 nm. For suspension cells, the methodology was the same except that the assay was terminated by fixing settled cells at the bottom of the wells by gently adding 50 μl of 80% TCA (final concentration, 16% TCA). Using the seven absorbance measurements (time zero, (Tz), control growth, (C), and test growth in the presence of drug at the five concentration levels (Ti)), the percentage growth was calculated at each of the compound concentrations levels. Percentage growth inhibition was calculated as:
(§4) [(Ti−Tz)/(C−Tz)]×100 for concentrations for which Ti>/=Tz
(§5) [(Ti−Tz)/Tz]×100 for concentrations for which Ti<Tz.
(§6) Three dose response parameters were calculated for each compound. Growth inhibition of 50% (GI50) was calculated from [(Ti−Tz)/(C−Tz)]×100=50, which is the compound concentration resulting in a 50% reduction in the net protein increase (as measured by SRB staining) in control cells during the compound incubation. The compound concentration resulting in total growth inhibition (TGI) was calculated from Ti=Tz. The LC50 (concentration of compound resulting in a 50% reduction in the measured protein at the end of the compound treatment as compared to that at the beginning) indicating a net loss of cells following treatment was calculated from [(Ti−Tz)/Tz]×100=−50. Values were calculated for each of these three parameters if the level of activity was reached; however, if the effect was not reached or was exceeded, the value for that parameter was expressed as greater or less than the maximum or minimum concentration tested.

LOX IMVI = test: NCI-60 screen, Melanoma; conditions: 10 μM
Experimental: as §1, §2, §3, §4, §5, §6

UACC-257 = test: NCI-60 screen, Melanoma; conditions: 10 μM
Experimental: as §1, §2, §3, §4, §5, §6

SK-MEL-5 = test: NCI-60 screen, Melanoma; conditions: 10 μM
Experimental: as §1, §2, §3, §4, §5, §6

MDA-MB-435 = test: NCI-60 screen, Melanoma; conditions: 10 μM
Experimental: as §1, §2, §3, §4, §5, §6

CAKI-1 = test: NCI-60 screen, Renal Cancer; conditions: 10 μM
Experimental: as §1, §2, §3, §4, §5, §6

A498 = test: NCI-60 screen, Renal Cancer; conditions: 10 μM
Experimental: as §1, §2, §3, §4, §5, §6

UO-31 = test: NCI-60 screen, Renal Cancer; conditions: 10 μM
Experimental: as §1, §2, §3, §4, §5, §6

RXF 393 = test: NCI-60 screen, Renal Cancer; conditions: 10 μM
Experimental: as §1, §2, §3, §4, §5, §6

ACHN = test: NCI-60 screen, Renal Cancer; conditions: 10 μM
Experimental: as §1, §2, §3, §4, §5, §6

SN12C = test: NCI-60 screen, Renal Cancer; conditions: 10 μM
Experimental: as §1, §2, §3, §4, §5, §6

TK-10 = test: NCI-60 screen, Renal Cancer; conditions: 10 μM
Experimental: as §1, §2, §3, §4, §5, §6

MDA-MB-31/ATCC = test: NCI-60 screen, Breast Cancer; conditions: 10 μM, MDA-MB-231/ATCC
Experimental: as §1, §2, §3, §4, §5, §6

MDA-MB-468 = test: NCI-60 screen, Breast Cancer; conditions: 10 μM
Experimental: as §1, §2, §3, §4, §5, §6

MCF7 = test: NCI-60 screen, Breast Cancer; conditions: 10 μM
Experimental: as §1, §2, §3, §4, §5, §6

T-47D = test: NCI-60 screen, Breast Cancer; conditions: 10 μM
Experimental: as §1, §2, §3, §4, §5, §6

BT-549 = test: NCI-60 screen, Breast Cancer; conditions: 10 μM
Experimental: as §1, §2, §3, §4, §5, §6

SF-295 = test: NCI-60 screen, CNS Cancer; conditions: 10 μM
Experimental: as §1, §2, §3, §4, §5, §6

SF-268 = test: NCI-60 screen, CNS Cancer; conditions: 10 μM
Experimental: as §1, §2, §3, §4, §5, §6

SNB-75 = test: NCI-60 screen, CNS Cancer; conditions: 10 μM
Experimental: as §1, §2, §3, §4, §5, §6

SNB-19 = test: NCI-60 screen, CNS Cancer; conditions: 10 μM
Experimental: as §1, §2, §3, §4, §5, §6

U251 = test: NCI-60 screen, CNS Cancer; conditions: 10 μM
Experimental: as §1, §2, §3, §4, §5, §6

CCRF-CEM = test: NCI-60 screen, Leukemia; conditions: 10 μM
Outline: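 Single-dose 10 μM screen on human tumour lines in RPMI 1640 with 5% FBS, 48 h compound exposure at 37 °C after 24 h pre-plating. Read-out is SRB protein stain (515 nm) after TCA fixation. Percentage growth is calculated relative to time-zero and untreated controls; negative values indicate cell kill.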

DU-145 = test: NCI-60 screen, Prostate Cancer; conditions: 10 μM
Experimental: as §1, §2, §3, §4, §5, §6

PC-3 = test: NCI-60 screen, Prostate Cancer; conditions: 10 μM
Experimental: as §1, §2, §3, §4, §5, §6

SF-539 = test: NCI-60 screen, CNS Cancer; conditions: 10 μM
Experimental: as §1, §2, §3, §4, §5, §6

SMILES: NCCc1cc(Br)cc(C#Cc2cccc(C#Cc3cc(Br)cc(CCN)c3)c2)c1 [Compound A]
- Percent Growth (MALME-3M): 106.8%
- Percent Growth (LOX IMVI): −76.91%
- Percent Growth (UACC-257): 68.25%
- Percent Growth (SK-MEL-5): 80.5%
- Percent Growth (MDA-MB-435): −16.19%
- Percent Growth (CAKI-1): 70.66%
- Percent Growth (A498): 84.01%
- Percent Growth (UO-31): 37.26%
- Percent Growth (RXF 393): −26.13%
- Percent Growth (ACHN): −46.91%
- Percent Growth (SN12C): 22.8%
- Percent Growth (TK-10): 8.048%
- Percent Growth (MDA-MB-31/ATCC): 4.31%
- Percent Growth (MDA-MB-468): −61.5%
- Percent Growth (MCF7): −89.84%
- Percent Growth (T-47D): 31.82%
- Percent Growth (BT-549): 102%
- Percent Growth (SF-295): 3.17%
- Percent Growth (SF-268): 61.55%
- Percent Growth (SNB-75): −2.087%
- Percent Growth (SNB-19): 27.06%
- Percent Growth (U251): −64.65%
- Percent Growth (CCRF-CEM): −12.43%
- Percent Growth (DU-145): −83.92%
- Percent Growth (PC-3): 45.26%

SMILES: N=C(N)NCCCCC(=O)Nc1cc(C(F)(F)F)cc(NC(=O)Nc2ccc(NC(=O)Nc3cc(C(F)(F)F)cc(NC(=O)CCCCNC(=N)N)c3OC3CCNC3)cc2)c1OC1CCNC1 (stereo not drawn) [Compound B]
- Percent Growth (MALME-3M): 83.13%
- Percent Growth (LOX IMVI): 59.57%
- Percent Growth (UACC-257): 75.89%
- Percent Growth (SK-MEL-5): 50.91%
- Percent Growth (MDA-MB-435): 48.12%
- Percent Growth (CAKI-1): 56.42%
- Percent Growth (A498): 66.45%
- Percent Growth (UO-31): 45.67%
- Percent Growth (RXF 393): 87.84%
- Percent Growth (ACHN): 62.45%
- Percent Growth (SN12C): 64.8%
- Percent Growth (TK-10): 60.45%
- Percent Growth (MDA-MB-31/ATCC): 73.02%
- Percent Growth (MDA-MB-468): 43.02%
- Percent Growth (MCF7): 44.41%
- Percent Growth (T-47D): 3.786%
- Percent Growth (BT-549): 89.61%
- Percent Growth (SF-295): 38.86%
- Percent Growth (SF-268): 49.93%
- Percent Growth (SNB-75): 19.48%
- Percent Growth (SF-539): 30.8%
- Percent Growth (SNB-19): 49.16%
- Percent Growth (U251): 37.71%
- Percent Growth (CCRF-CEM): 60.57%
- Percent Growth (DU-145): 70.36%
- Percent Growth (PC-3): 59.59%

SMILES: N=C(N)NCCCCC(=O)Nc1cc(C(F)(F)F)cc(NC(=O)c2cc(C(=O)Nc3cc(C(F)(F)F)cc(NC(=O)CCCCNC(=N)N)c3SCCN)ncn2)c1SCCN [Compound C]
- Percent Growth (MALME-3M): 63.62%
- Percent Growth (LOX IMVI): 50.64%
- Percent Growth (UACC-257): 61.31%
- Percent Growth (SK-MEL-5): 34.55%
- Percent Growth (MDA-MB-435): 35.56%
- Percent Growth (CAKI-1): 47.81%
- Percent Growth (A498): 69.5%
- Percent Growth (UO-31): 73.64%
- Percent Growth (RXF 393): 78.06%
- Percent Growth (ACHN): 53.08%
- Percent Growth (SN12C): 65.97%
- Percent Growth (TK-10): 38.3%
- Percent Growth (MDA-MB-31/ATCC): 81.52%
- Percent Growth (MDA-MB-468): −53.05%
- Percent Growth (MCF7): 10.27%
- Percent Growth (T-47D): 14.59%
- Percent Growth (BT-549): 96.67%
- Percent Growth (SF-295): 39.81%
- Percent Growth (SF-268): 53.24%
- Percent Growth (SNB-75): 22.47%
- Percent Growth (SF-539): 70.3%
- Percent Growth (SNB-19): 47.25%
- Percent Growth (U251): 31.28%
- Percent Growth (CCRF-CEM): 24.46%
- Percent Growth (DU-145): 62.89%
- Percent Growth (PC-3): 77.68%

SMILES: NCCCc1cccc(-c2ccc3oc4ccc(-c5cccc(CCCN)c5)cc4c3c2)c1 [Compound G]
- Percent Growth (MALME-3M): 105%
- Percent Growth (LOX IMVI): −75.08%
- Percent Growth (UACC-257): 44.84%
- Percent Growth (SK-MEL-5): 89.15%
- Percent Growth (MDA-MB-435): 62.07%
- Percent Growth (CAKI-1): 56.68%
- Percent Growth (A498): 92.26%
- Percent Growth (UO-31): 84.95%
- Percent Growth (RXF 393): 65.05%
- Percent Growth (ACHN): 36.71%
- Percent Growth (SN12C): 82.22%
- Percent Growth (TK-10): 57.59%
- Percent Growth (MDA-MB-31/ATCC): 37.19%
- Percent Growth (MDA-MB-468): −3.51%
- Percent Growth (MCF7): −44.29%
- Percent Growth (T-47D): 80.44%
- Percent Growth (BT-549): 101.5%
- Percent Growth (SF-295): 65.4%
- Percent Growth (SF-268): 75.18%
- Percent Growth (SNB-75): 66.47%
- Percent Growth (SF-539): 86.73%
- Percent Growth (SNB-19): 88.57%
- Percent Growth (CCRF-CEM): 9.165%
- Percent Growth (DU-145): −23.65%
- Percent Growth (PC-3): 54.99%
